From patent US20260000763A1, “Methods of Manufacturing Therapeutic Cells” (The Board of Trustees of the Leland Stanford Junior …, priority 2022, published 2026)

Assays:
[1] = test system: HA-CAR T cells and CD19-CAR T cells; assay: Seahorse analysis of mitochondrial fitness; cell size; assay type: cell-based
Procedure: To measure mitochondrial fitness in CAR T cells cultured in the presence or absence of INO, Seahorse analysis was performed.

HA-CAR T cells [2] = assay: Mass cytometry single cell metabolic regulome profiling; assay type: cell-based, human; settings: CyTOF, day 14
Text: INO cultured cells also expressed higher levels of enzymes associated with glutaminolysis (GLS, GPT2), and TCA activity (IDH1, IDH2, CS, SDHA), consistent with INO induced glutamine catabolismdriving TCA through anapleurosis (FIG. 11D). Proteins of complex I and complex V of the electron transport chain were also elevated, consistent with higher oxidative phosphorylation.

HA-CAR T cells [3] = assay: Improvement index overlapped with proliferation to set a therapeutic window for inosine; assay type: cell-based, human; settings: 11 mM glucose plus 0.5-11 mM inosine tested; improvement index vs proliferation
Procedure: FIG. 7F: Improvement index calculation scheme.
FIG. 7G: Scatter plot showing correlation between improvement index (y-axis-in black) or proliferation (y-axis-in red) and inosine concentration (x-axis). […] N=2-6 donors from independent experiments.
To establish a therapeutic window for inosine addition, an improvement index was calculated. The index represents a sum of fold change in frequency of CCR7+CD8+ and CD62L+CD8+ at the base line and fold change in IL-2 and IFNγ secretion after 24 hours stimulation with Nalm6-GD2 tumor line by HA-CAR T cells manufactured in 11 mM of glucose and various concentrations of inosine (0.5-11 mM) as compared to control (FIG. 7F).

Nalm6 tumor line = assay: Co-culture of CD19.28 CAR T cells with Nalm6: IncuCyte killing and cytokine ELISA; assay type: cell-based
Procedure: In this example, CD19.28 CAR T cells were cultured in regular complete RPMI media until day 4, and then the cells were split between 11 mM glucose-(CTR) or 11 mM inosine-(INO) containing media (unless stated otherwise). A: Annexin 5 staining was performed at day 17 post-activation. Representative histograms of n=3 donors are shown. B: Surface CD19.28 CAR expression at day 14 post-activation. C: MFI of CAR molecules on CD19.28z CAR T cell surface at day 14 post activation. D: Ratio of CD4+vs CD8+CD19.28 CAR T cells at day 14 post-activation. E: CD19.28z CAR T cells were co-cultured with cells of the Nalm6 tumor line (1:8 E: T) for 75 hrs in an IncuCyte assay. […] Representative donor of n=3 is shown. F: Control media was replaced by INO+ media at the indicated day post activation. At day 14, cells were stimulated with Nalm6 tumor line, and IL-2 and IFNγ secretion was assessed by ELISA. […] For A and B, P values were determined by paired two-tailed t-tests. […] For F and G, P values were determined by unpaired two-tailed t-tests.
In this example, CD19.28 CAR T cells were generated using a retroviral vector and at day 4 post-activation, the cells were split between 11 mM glucose-(CTR) or 11 mM inosine-(INO) containing media (unless stated otherwise). Tested first was whether the absence of glucose in the culture media has a negative effect on the viability of CAR T cells.
Tumor antigen density is one of the most important factors affecting the efficacy of CAR T immunotherapy. Therefore, assessed next was whether growing CAR T cells in inosine-containing media improves their effector function against low antigen expressing tumor lines.

HA CAR T cells = assay: Phenotype of tonically signaling (exhausted) HA CAR T cells expanded in inosine media (flow cytometry, CyTOF); assay type: cell-based, human; settings: for CD62L expression / frequency of central memory cells: CD8+ HA-CAR T cells, day 21, INO in presence or absence of glucose
Procedure: A: CD4+vs CD8+ ratio at day 14 post-activation. N-7 donors. P values were determined by paired two-tailed t-tests. […] C: IL-2 and IFNγ secretion at day 14 post-activation. P values were determined by unpaired two-tailed t-tests.
In this example, CAR T cells were cultured in control media until day 4 post activation, followed by continued expansion in regular or inosine-containing media. Phenotype of the cells was assessed by flow cytometry at day 21 post activation. A: Frequency of CD62L+ and CCR7+HA CAR+ T cells in 8 different donors. Representative histograms are shown. B: Relative frequency of central memory (CM), naïve, terminally differentiated (TEMRA) and effector memory (EM) HA CAR T cells. N=8 donors. C: Frequency of CD62L+ and CCR7+CD19.28 CAR+ T cells in 8 different donors. Representative histograms are shown. D: Relative frequency of central memory (CM), naïve, terminally differentiated (TEMRA) and effector memory (EM) CD19.28 CAR T cells. N=8 donors.
N=2-6 donors from independent experiments.
(Top) Dot plots of representative donor shown.
9A: Schematic of the experimental design. […] Graphs represent median expression of indicated markers. […] Representative donor of n=2 donor shown. […] Data are mean+SD from triplicate wells. […] 9K: Schematic of the experimental design. […] Representative donor of n=3 donor shown. […] Representative donor of n=2 donor shown. […] (Top) Dot plots of representative donor shown. […] Representative donor of n=3 donor shown. […] N=2-4 donors from independent experiments. […] N=2-6 donors from independent experiments. […] N=2-4 donors from independent experiments. […] (Top) representative dot plots shown.
Transcriptomic and epigenetic hallmarks of exhaustion occur within 10-12 days in the HA-CAR model. To determine if INO can induce a stem-like phenotype in already exhausted T cells, HA-CAR T cells were exposed to INO on day: 4, 7, 10 and 14 post-activation, analyzing phenotype and function (FIG. 9K).
HA-CAR T cells were cultured from day 4 post-activation in control media containing glucose (11 mM), inosine only at 11 mM (INO), media containing both inosine and glucose at 11 mM or media without glucose or inosine.
To assess whether the observed increase in stemness and functionality is attributable to inosine addition or glucose deprivation, HA-CAR T cells were cultured from day 4 post-activation in control media containing 11 mM glucose (CTR), no glucose and no inosine (starvation condition), 11 mM inosine only (INO), or media containing both inosine and glucose (FIG. 7A). Proliferation was assessed at day 10.

[4] = day 21, inosine supplementation

For `O=c1[nH]cnc2c1ncn2[C@@H]1O[C@H](CO)[C@@H](O)[C@H]1O` [inosine, Inosine], the “metabolic profile of non-tonic signaling CD19-CAR T cells” value ([1]; Seahorse, day 11) was “memory-like metabolic profile”, the “basal oxygen consumption rate (Basal OCR)” value ([1]; day 11, control vs INO cultured cells) was “did not differ” and the “size of the cells” value ([1]; day 13 post-activation) was “increased size”. The “enzymes associated with glutaminolysis (GLS, GPT2) and TCA activity (IDH1, IDH2, CS, SDHA)” value (HA-CAR T cells [2]) was “higher levels”, the “expression of CAT2” value (HA-CAR T cells [2]) was “increased” and the “proteins of complex I and complex V of the electron transport chain” value (HA-CAR T cells [2]) was “elevated”. The “inosine concentration range improving phenotype and function without complete inhibition of expansion (therapeutic window)” value (HA-CAR T cells [3]) was 2.75 to 11 mM, the tumor killing (Nalm6 tumor line; Nalm6, 1:8 E:T, 75 hrs IncuCyte, cells expanded in 11 mM inosine vs glucose) was “increased tumor killing” and the “secretion of IFNγ” value (Nalm6 tumor line; Nalm6 expressing medium or low levels of surface CD19, day 14) was “significantly increased secretion”. The “effector cytokine secretion (IL-2, IFNγ)” value (Nalm6 tumor line; stimulated with Nalm6 at day 14, ELISA) was “increased”, the CD62L expression (HA CAR T cells) was “significantly enhanced CD62L expression” and the “frequency of central memory cells” value (HA CAR T cells) was “significantly enhanced”. For the same compound, the CD62L expression (HA CAR T cells; listed as INO) was “enhanced CD62L expression”, the “frequency of central memory cells” value (HA CAR T cells; listed as INO) was “enhanced” and the “frequency of CD8+ cells” value (HA CAR T cells; HA CAR T cells in INO+ media vs control, day 14) was “increased the frequency of CD8+ cells”. The “expression of memory markers CD62L and CCR7” value (HA CAR T cells; HA CAR T cells in INO+ media, day 21) was “higher expression”, the “frequency of CD8+CD62L+ HA-CAR T cells” value (HA CAR T cells; INO added on day 4, 7, 10 or 14 post-activation, assessed day 21) was “increased frequency” and the “frequency of terminally differentiated and effector cells” value (HA CAR T cells; [4]) was “decreased frequency”. The “percentage of naïve and central memory HA CAR T cells” value (HA CAR T cells; [4]) was “elevated percentage” and the CD62L levels (HA CAR T cells; flow cytometry, CD8+ and CD4+ HA-CAR T cells, day 21) was “higher levels”.
